Consider 14 compounds from patent US8475804B2 (priority 2009, dated 2013).

Counter-ions that a name gives are not always drawn.

The test system of one test is Ebola virus. In words: microbe, parasite or virus in culture. In kind it is cell-based, Ebolavirus (EBOV).
Conditions: not given
`CC(=O)c1ccc2c(c1)N(CCCN1CCC(CCO)CC1)c1ccccc1S2` [Piperacetazine]: the “Max Effect” value is on record as 0.641 and the “Max Effect Vero” value is 0.962.

Take Vinorelbine Tartrate Hydrate: the “Max Effect” value is reported as 0.472 and the “Max Effect Vero” value turned out to be 0.256.

For `CN(C)CCOc1ccc(/C(=C(/CCCl)c2ccccc2)c2ccccc2)cc1` [Toremifene Citrate], the concentration for half-maximal inhibition (IC50) was more than 1 µM and the “Max Effect” value turned out to be 0.900.

The test is the same for the next values; noted with them: Zaire ebolavirus, Vero.
In turn, `O=C1Nc2ccc(Cl)cc2[C@@](C#CC2CC2)(C(F)(F)F)O1` [Efavirenz] gave a concentration for half-maximal inhibition (IC50) of 7.8 µM.

`CCC(C)(C)C(=O)O[C@H]1C[C@@H](C)C=C2C=C[C@H](C)[C@H](CC[C@@H]3C[C@@H](O)CC(=O)O3)[C@H]21` [Simvastatin] gave an IC50 of 2 µM.

In turn, `Nc1ncn([C@@H]2O[C@H](CO)[C@@H](O)[C@H]2O)c(=O)n1` [Azacitidine] displayed an IC50 of 5 µM.

Compound `CC(C)COCC(CN(Cc1ccccc1)c1ccccc1)N1CCCC1` (centres unmarked) [Bepridil Hydrochloride Monohydrate] had an IC50 of 3.1 µM.

Consider `COc1c(C)c2c(c(O)c1C/C=C(\C)CCC(=O)OCCN1CCOCC1)C(=O)OC2` [Mycophenolate Mofetil], for which the IC50 is less than 1 µM.

The compound `O=C1C(O)=C([C@H]2CC[C@H](c3ccc(Cl)cc3)CC2)C(=O)c2ccccc21` [Atovaquone] registered an IC50 of less than 1 µM.

As for `CCN(CC)CCCC(C)Nc1c2ccc(Cl)cc2nc2ccc(OC)cc12` (centres unmarked) [Quinacrine Dihydrochloride], half-maximal inhibition (IC50) was put at 9.5 µM.

The test is the same for the next values; noted with them: Zaire ebolavirus, Vero, read-out: IC50 (μM) Vero.
Turning to `O=C1Nc2ccc(Cl)cc2[C@@](C#CC2CC2)(C(F)(F)F)O1` [Efavirenz], the half-maximal inhibitory concentration (IC50) was determined as 10 µM.

Turning to `CCC(C)(C)C(=O)O[C@H]1C[C@@H](C)C=C2C=C[C@H](C)[C@H](CC[C@@H]3C[C@@H](O)CC(=O)O3)[C@H]21` [Simvastatin], the IC50 was 20 µM.

Take `Nc1ncn([C@@H]2O[C@H](CO)[C@@H](O)[C@H]2O)c(=O)n1` [Azacitidine]: the IC50 was found to be 8.9 µM.

Turning to `CC(C)COCC(CN(Cc1ccccc1)c1ccccc1)N1CCCC1` (centres unmarked) [Bepridil Hydrochloride Monohydrate], the IC50 came out at 5.1 µM.

For the compound `CN(C)CCOc1ccc(/C(=C(/CCCl)c2ccccc2)c2ccccc2)cc1` [Toremifene Citrate], the IC50 amounted to 0.16 µM.

Turning to `O=C1C(O)=C([C@H]2CC[C@H](c3ccc(Cl)cc3)CC2)C(=O)c2ccccc21` [Atovaquone], the IC50 turned out to be 0.44 µM.

Consider `CCN(CC)CCCC(C)Nc1c2ccc(Cl)cc2nc2ccc(OC)cc12` (centres unmarked) [Quinacrine Dihydrochloride], for which the concentration for half-maximal inhibition (IC50) amounted to 5.7 µM.

The test is the same for the next values; noted with them: Zaire ebolavirus, Vero, read-out: Max Effect.
With `OCCN1CCN(CCCN2c3ccccc3Sc3ccc(C(F)(F)F)cc32)CC1` [Fluphenazine Hydrochloride], the Emax stood at 98.8%.

Consider `O=C1Nc2ccc(Cl)cc2[C@@](C#CC2CC2)(C(F)(F)F)O1` [Efavirenz], for which the Emax was 51.6%.

`CCC(C)(C)C(=O)O[C@H]1C[C@@H](C)C=C2C=C[C@H](C)[C@H](CC[C@@H]3C[C@@H](O)CC(=O)O3)[C@H]21` [Simvastatin]: the Emax was found to be 69%.

For the compound `O=C1CCc2ccc(OCCCCN3CCN(c4cccc(Cl)c4Cl)CC3)cc2N1` [Aripiprazole], the Emax came to 80.7%.

Turning to `Nc1ncn([C@@H]2O[C@H](CO)[C@@H](O)[C@H]2O)c(=O)n1` [Azacitidine], the Emax was 59.5%.

`CNCCCC12CCC(c3ccccc31)c1ccccc12` [Maprotiline Hydrochloride]: the Emax was found to be 79.5%.

Regarding `CC(C)COCC(CN(Cc1ccccc1)c1ccccc1)N1CCCC1` (centres unmarked) [Bepridil Hydrochloride Monohydrate], the Emax came to 72%.

Turning to `COc1c(C)c2c(c(O)c1C/C=C(\C)CCC(=O)OCCN1CCOCC1)C(=O)OC2` [Mycophenolate Mofetil], the Emax worked out at 90%.

For `O=C1C(O)=C([C@H]2CC[C@H](c3ccc(Cl)cc3)CC2)C(=O)c2ccccc21` [Atovaquone], the Emax came out at 90%.

As to `CCN(CC)CCCC(C)Nc1c2ccc(Cl)cc2nc2ccc(OC)cc12` (centres unmarked) [Quinacrine Dihydrochloride], the Emax worked out at 77.9%.

The same test, now with this note: Zaire ebolavirus, Vero, read-out: Max Effect Vero.
`OCCN1CCN(CCCN2c3ccccc3Sc3ccc(C(F)(F)F)cc32)CC1` [Fluphenazine Hydrochloride]: the Emax was determined as 96.8%.

Turning to `O=C1Nc2ccc(Cl)cc2[C@@](C#CC2CC2)(C(F)(F)F)O1` [Efavirenz], the Emax turned out to be 63.9%.

Turning to `CCC(C)(C)C(=O)O[C@H]1C[C@@H](C)C=C2C=C[C@H](C)[C@H](CC[C@@H]3C[C@@H](O)CC(=O)O3)[C@H]21` [Simvastatin], the Emax was determined as 55.7%.

`O=C1CCc2ccc(OCCCCN3CCN(c4cccc(Cl)c4Cl)CC3)cc2N1` [Aripiprazole]: the Emax was 53%.

With `Nc1ncn([C@@H]2O[C@H](CO)[C@@H](O)[C@H]2O)c(=O)n1` [Azacitidine], the Emax was determined as 74.6%.

Turning to `CNCCCC12CCC(c3ccccc31)c1ccccc12` [Maprotiline Hydrochloride], the Emax came to 98.6%.

Regarding `CC(C)COCC(CN(Cc1ccccc1)c1ccccc1)N1CCCC1` (centres unmarked) [Bepridil Hydrochloride Monohydrate], the Emax came to 97%.

Turning to `COc1c(C)c2c(c(O)c1C/C=C(\C)CCC(=O)OCCN1CCOCC1)C(=O)OC2` [Mycophenolate Mofetil], the Emax is 43.8%.

For `CN(C)CCOc1ccc(/C(=C(/CCCl)c2ccccc2)c2ccccc2)cc1` [Toremifene Citrate], the Emax was determined as 93.5%.

For `O=C1C(O)=C([C@H]2CC[C@H](c3ccc(Cl)cc3)CC2)C(=O)c2ccccc21` [Atovaquone], the Emax was found to be 73.9%.

On to `CCN(CC)CCCC(C)Nc1c2ccc(Cl)cc2nc2ccc(OC)cc12` (centres unmarked) [Quinacrine Dihydrochloride], for which the Emax stood at 92.3%.

Still in this test, the particulars now being: read-out: IC50.
Regarding `OCCN1CCN(CC/C=C2/c3ccccc3Sc3ccc(C(F)(F)F)cc32)CC1` [Flupentixol Dihydrochloride], the IC50 amounted to 3.8 µM.

For `CC(=O)c1ccc2c(c1)N(CCCN1CCC(CCO)CC1)c1ccccc1S2` [Piperacetazine], the IC50 was found to be 6.6 µM.

In the case of Vinorelbine Tartrate Hydrate, the half-maximal inhibitory concentration (IC50) amounted to 3.2 µM.

The test is the same for the next values; noted with them: read-out: IC50 (μM) Vero.
As to `OCCN1CCN(CC/C=C2/c3ccccc3Sc3ccc(C(F)(F)F)cc32)CC1` [Flupentixol Dihydrochloride], the 50% inhibitory concentration (IC50) was 5.7 µM.

As to `CC(=O)c1ccc2c(c1)N(CCCN1CCC(CCO)CC1)c1ccccc1S2` [Piperacetazine], the IC50 turned out to be 12 µM.

Another test concerns Ebola virus. In words: microbe, parasite or virus in culture. In kind it is cell-based, Ebolavirus (EBOV). On the set-up: Max Effect HepG2: unit not given here.
Conditions: not given
The source holds these as a separate data set.
In the case of `CC(=O)c1ccc2c(c1)N(CCCN1CCC(CCO)CC1)c1ccccc1S2` [Piperacetazine], the “Max Effect HepG2” value turned out to be 0.954.

As to Vinorelbine Tartrate Hydrate, the “Max Effect HepG2” value is recorded as 0.788.

Staying with this test, now noted: Zaire ebolavirus, HepG2, read-out: IC50 (μM) HepG2.
With `O=C1Nc2ccc(Cl)cc2[C@@](C#CC2CC2)(C(F)(F)F)O1` [Efavirenz], the half-maximal inhibitory concentration (IC50) stood at 14 µM.

`Nc1ncn([C@@H]2O[C@H](CO)[C@@H](O)[C@H]2O)c(=O)n1` [Azacitidine]: the IC50 came out at 10 µM.

As for `CC(C)COCC(CN(Cc1ccccc1)c1ccccc1)N1CCCC1` (centres unmarked) [Bepridil Hydrochloride Monohydrate], the concentration for half-maximal inhibition (IC50) is 3.2 µM.

On to `COc1c(C)c2c(c(O)c1C/C=C(\C)CCC(=O)OCCN1CCOCC1)C(=O)OC2` [Mycophenolate Mofetil], for which the 50% inhibitory concentration (IC50) turned out to be 0.29 µM.

In the case of `CN(C)CCOc1ccc(/C(=C(/CCCl)c2ccccc2)c2ccccc2)cc1` [Toremifene Citrate], the IC50 was found to be 0.026 µM.

For `CCN(CC)CCCC(C)Nc1c2ccc(Cl)cc2nc2ccc(OC)cc12` (centres unmarked) [Quinacrine Dihydrochloride], the IC50 worked out at 1 µM.

The test is the same for the next values; noted with them: Zaire ebolavirus, HepG2, read-out: Max Effect HepG2.
`OCCN1CCN(CCCN2c3ccccc3Sc3ccc(C(F)(F)F)cc32)CC1` [Fluphenazine Hydrochloride]: the Emax was 92%.

Turning to `O=C1Nc2ccc(Cl)cc2[C@@](C#CC2CC2)(C(F)(F)F)O1` [Efavirenz], the Emax stood at 86%.

Regarding `CCC(C)(C)C(=O)O[C@H]1C[C@@H](C)C=C2C=C[C@H](C)[C@H](CC[C@@H]3C[C@@H](O)CC(=O)O3)[C@H]21` [Simvastatin], the Emax worked out at 35.3%.

Consider `O=C1CCc2ccc(OCCCCN3CCN(c4cccc(Cl)c4Cl)CC3)cc2N1` [Aripiprazole], for which the Emax came out at 94.7%.

`Nc1ncn([C@@H]2O[C@H](CO)[C@@H](O)[C@H]2O)c(=O)n1` [Azacitidine]: the Emax came out at 89.9%.

Regarding `CNCCCC12CCC(c3ccccc31)c1ccccc12` [Maprotiline Hydrochloride], the Emax was 92.5%.

For `CC(C)COCC(CN(Cc1ccccc1)c1ccccc1)N1CCCC1` (centres unmarked) [Bepridil Hydrochloride Monohydrate], the Emax amounted to 91.2%.

Consider `COc1c(C)c2c(c(O)c1C/C=C(\C)CCC(=O)OCCN1CCOCC1)C(=O)OC2` [Mycophenolate Mofetil], for which the Emax was found to be 88.6%.

Take `CN(C)CCOc1ccc(/C(=C(/CCCl)c2ccccc2)c2ccccc2)cc1` [Toremifene Citrate]: the Emax is 94.9%.

Take `O=C1C(O)=C([C@H]2CC[C@H](c3ccc(Cl)cc3)CC2)C(=O)c2ccccc21` [Atovaquone]: the Emax amounted to 23.1%.

Regarding `CCN(CC)CCCC(C)Nc1c2ccc(Cl)cc2nc2ccc(OC)cc12` (centres unmarked) [Quinacrine Dihydrochloride], the Emax worked out at 86.2%.

The same test, now with this note: read-out: IC50 (μM) HepG2.
Regarding `OCCN1CCN(CC/C=C2/c3ccccc3Sc3ccc(C(F)(F)F)cc32)CC1` [Flupentixol Dihydrochloride], the half-maximal inhibitory concentration (IC50) came to 1.6 µM.

Consider `CC(=O)c1ccc2c(c1)N(CCCN1CCC(CCO)CC1)c1ccccc1S2` [Piperacetazine], for which the IC50 was 3.3 µM.

In the case of Vinorelbine Tartrate Hydrate, the half-inhibitory concentration (IC50) amounted to 0.86 µM.

As usually defined, the IC50 is the point on the concentration scale where inhibition reaches its midpoint.
